Data as given in PubChem BioAssay AID248 (DTP/NCI, 2004).
Where “and” joins values, the source holds several entries; their conditions need not be identical. Equal entries are not always repeated. Inconclusive results and toxic doses are left out.

System: L1210 leukemia ip in BDF1 mice, survival T/C
Assay: NCI In Vivo Anticancer Drug Screen. Data for tumor model L1210 Leukemia (intraperitoneal) in B6D2F1 (BDF1) mice
Details: endpoint: mean survival time, higher = longer survival
How it was run: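 Value reflects the ratio of survival in compound-treated mice to survival in vehicle-treated controls, with both groups carrying the same transplanted tumor.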

[1] = dose: 100.0 mg/kg/injection, schedule: Q01DX001 (ip), vehicle: other
[2] = dose: 100.0 mg/kg/injection, schedule: Q04DX003 (ip), vehicle: other
[3] = dose: 200.0 mg/kg/injection, schedule: Q01DX001 (ip), vehicle: other
[4] = dose: 200.0 mg/kg/injection, schedule: Q04DX003 (ip), vehicle: other
[5] = dose: 12.5 mg/kg/injection, schedule: Q01DX009 (ip), vehicle: Klucel (hydroxypropylcellulose) (HPC)
[6] = dose: 25.0 mg/kg/injection, schedule: Q01DX009 (ip), vehicle: Klucel (hydroxypropylcellulose) (HPC)

CS(=O)(=O)CCN(N=O)C(=N)N[N+](=O)[O-]
T/C (dose: 5.1 mg/kg/injection, schedule: Q01DX Z (ip), vehicle: carboxymethylcellulose (CMC)): 116 % of control | T/C (dose: 7.7 mg/kg/injection, schedule: Q01DX Z (ip), vehicle: carboxymethylcellulose (CMC)): 116 % of control | T/C (dose: 8.8 mg/kg/injection, schedule: Q01DX Z (ip), vehicle: methylcellulose (MC)): 121 % of control | T/C (dose: 11.7 mg/kg/injection, schedule: Q01DX Z (ip), vehicle: carboxymethylcellulose (CMC)): 116 % of control | T/C (dose: 12.0 mg/kg/injection, schedule: Q01DX Z (sc), vehicle: carboxymethylcellulose (CMC)): 101 % of control | T/C (dose: 17.7 mg/kg/injection, schedule: Q01DX Z (ip), vehicle: carboxymethylcellulose (CMC)): 123 % of control | T/C (dose: 20.0 mg/kg/injection, schedule: Q01DX Z (ip), vehicle: methylcellulose (MC)): 117 % of control | T/C (dose: 24.0 mg/kg/injection, schedule: Q01DX Z (sc), vehicle: carboxymethylcellulose (CMC)): 117 % of control | T/C (dose: 40.0 mg/kg/injection, schedule: Q01DX Z (ip), vehicle: carboxymethylcellulose (CMC)): 155 % of control | T/C (dose: 45.0 mg/kg/injection, schedule: Q01DX Z (oral), vehicle: carboxymethylcellulose (CMC)): 106 % of control | T/C (dose: 48.0 mg/kg/injection, schedule: Q01DX Z (sc), vehicle: carboxymethylcellulose (CMC)): 101 % of control | T/C (dose: 60.0 mg/kg/injection, schedule: Q01DX Z (ip), vehicle: carboxymethylcellulose (CMC)): 150 % of control | T/C (dose: 60.0 mg/kg/injection, schedule: Q01DX Z (ip), vehicle: methylcellulose (MC)): 168 % of control | T/C (dose: 90.0 mg/kg/injection, schedule: Q01DX Z (ip), vehicle: methylcellulose (MC)): 122 % of control | T/C (dose: 90.0 mg/kg/injection, schedule: Q01DX Z (oral), vehicle: carboxymethylcellulose (CMC)): 105 % of control | T/C (dose: 96.0 mg/kg/injection, schedule: Q01DX Z (sc), vehicle: carboxymethylcellulose (CMC)): 112 % of control | T/C (dose: 135.0 mg/kg/injection, schedule: Q01DX Z (ip), vehicle: methylcellulose (MC)): 119 % of control | T/C (dose: 180.0 mg/kg/injection, schedule: Q01DX Z (oral), vehicle: carboxymethylcellulose (CMC)): 118 % of control | T/C (dose: 360.0 mg/kg/injection, schedule: Q01DX Z (oral), vehicle: carboxymethylcellulose (CMC)): 114 % of control

NC1=NC=NCN1c1ccc(N)cc1
T/C (dose: 25.0 mg/kg/injection, schedule: Q01DX001 (ip), vehicle: saline with Tween-80): 96 % of control | T/C (dose: 50.0 mg/kg/injection, schedule: Q01DX001 (ip), vehicle: saline with Tween-80): 102 % of control | T/C (dose: 100.0 mg/kg/injection, schedule: Q01DX001 (ip), vehicle: saline with Tween-80): 104 % of control

N=C(N)Sc1cc(O)ccc1O
T/C (dose: 50.0 mg/kg/injection, schedule: Q01DX009 (ip), vehicle: saline): 94 % of control | T/C (dose: 100.0 mg/kg/injection, schedule: Q01DX009 (ip), vehicle: saline): 93 % of control | T/C (dose: 100.0 mg/kg/injection, schedule: Q04DX003 (ip), vehicle: alcohol): 102 % of control | T/C (dose: 200.0 mg/kg/injection, schedule: Q01DX009 (ip), vehicle: saline): 96 % of control | T/C (dose: 200.0 mg/kg/injection, schedule: Q04DX003 (ip), vehicle: alcohol): 104 % of control

CNCC(NC)c1cc(OC)c(OC)c(OC)c1 (stereo not given)
T/C (dose: 100.0 mg/kg/injection, schedule: Q04DX003 (ip), vehicle: saline): 94 % of control | T/C (dose: 200.0 mg/kg/injection, schedule: Q04DX003 (ip), vehicle: saline): 95 % of control | T/C (dose: 400.0 mg/kg/injection, schedule: Q04DX003 (ip), vehicle: saline): 94 % of control

CCCOP(=S)(NCCCOC)OCCC
T/C (dose: 50.0 mg/kg/injection, schedule: Q01DX009 (ip), vehicle: other): 94 % of control | T/C (dose: 50.0 mg/kg/injection, schedule: Q04DX003 (ip), vehicle: other): 95 % of control | T/C [1]: 96 % of control | T/C (dose: 100.0 mg/kg/injection, schedule: Q01DX009 (ip), vehicle: other): 100 % of control | T/C [2]: 95 % of control | T/C [3]: 102 % of control | T/C (dose: 200.0 mg/kg/injection, schedule: Q01DX009 (ip), vehicle: other): 94 % of control | T/C [4]: 97 % of control

CCCCCCCCCCCCC(=O)N(CCCC)CCCC
T/C (dose: 100.0 mg/kg/injection, schedule: Q04DX002 (ip), vehicle: Klucel (hydroxypropylcellulose) (HPC)): 92 % of control | T/C (dose: 200.0 mg/kg/injection, schedule: Q04DX002 (ip), vehicle: Klucel (hydroxypropylcellulose) (HPC)): 96 % of control | T/C (dose: 400.0 mg/kg/injection, schedule: Q04DX002 (ip), vehicle: Klucel (hydroxypropylcellulose) (HPC)): 103 % of control

COC1CCC(/C(C#N)=C/C2CCC3OCOC3C2)CC1 (stereo not given)
T/C (dose: 100.0 mg/kg/injection, schedule: Q04DX002 (ip), vehicle: saline with Tween-80): 101 % of control | T/C (dose: 200.0 mg/kg/injection, schedule: Q04DX002 (ip), vehicle: saline with Tween-80): 90 % of control | T/C (dose: 400.0 mg/kg/injection, schedule: Q04DX002 (ip), vehicle: saline with Tween-80): 94 % of control

CC1(C)N=C(N)N=C(N)N1c1ccc(CCc2ccccc2)c(Cl)c1
T/C (dose: 3.13 mg/kg/injection, schedule: Q01DX009 (ip), vehicle: Klucel (hydroxypropylcellulose) (HPC)): 100 % of control | T/C (dose: 6.25 mg/kg/injection, schedule: Q01DX009 (ip), vehicle: Klucel (hydroxypropylcellulose) (HPC)): 104 % of control | T/C [5]: 104 % of control | T/C (dose: 12.5 mg/kg/injection, schedule: Q04DX003 (ip), vehicle: Klucel (hydroxypropylcellulose) (HPC)): 93 % of control | T/C [6]: 107 % of control | T/C (dose: 25.0 mg/kg/injection, schedule: Q04DX003 (ip), vehicle: Klucel (hydroxypropylcellulose) (HPC)): 93 % of control | T/C (dose: 50.0 mg/kg/injection, schedule: Q04DX003 (ip), vehicle: Klucel (hydroxypropylcellulose) (HPC)): 94 % of control

CN(C)C(=O)Sc1ccc(C(=O)O)cc1
T/C (dose: 100.0 mg/kg/injection, schedule: Q04DX003 (ip), vehicle: gum acacia): 109 % of control | T/C (dose: 200.0 mg/kg/injection, schedule: Q04DX003 (ip), vehicle: gum acacia): 98 % of control | T/C (dose: 400.0 mg/kg/injection, schedule: Q04DX003 (ip), vehicle: gum acacia): 113 % of control

CC1=C2C(=CO[C@H](C)[C@H]2C)C(=O)C(C(=O)O)=C1O
T/C (dose: 12.5 mg/kg/injection, schedule: Q04DX002 (ip), vehicle: saline with Tween-80): 88 % of control | T/C (dose: 25.0 mg/kg/injection, schedule: Q04DX002 (ip), vehicle: saline with Tween-80): 103 % of control | T/C (dose: 50.0 mg/kg/injection, schedule: Q04DX002 (ip), vehicle: saline with Tween-80): 102 % of control and 88 % of control

COCCCNP(=S)(OC)OC
T/C [1]: 98 % of control | T/C [2]: 98 % of control | T/C [3]: 105 % of control | T/C [4]: 98 % of control | T/C (dose: 400.0 mg/kg/injection, schedule: Q01DX001 (ip), vehicle: other): 94 % of control | T/C (dose: 400.0 mg/kg/injection, schedule: Q04DX003 (ip), vehicle: other): 101 % of control

CC(C)(CO)N=Cc1ccccc1O.CC(C)(CO)N=Cc1ccccc1O.[Cu].[Cu]
T/C (dose: 75.0 mg/kg/injection, schedule: Q01DX001 (ip), vehicle: other): 98 % of control | T/C (dose: 150.0 mg/kg/injection, schedule: Q01DX001 (ip), vehicle: other): 96 % of control | T/C (dose: 300.0 mg/kg/injection, schedule: Q01DX001 (ip), vehicle: other): 98 % of control

Cc1cc(C)c(-c2c(C)cc(C)cc2CBr)c(CBr)c1
T/C (dose: 100.0 mg/kg/injection, schedule: Q01DX009 (ip), vehicle: Klucel (hydroxypropylcellulose) (HPC)): 108 % of control | T/C (dose: 200.0 mg/kg/injection, schedule: Q01DX009 (ip), vehicle: Klucel (hydroxypropylcellulose) (HPC)): 99 % of control | T/C (dose: 400.0 mg/kg/injection, schedule: Q01DX009 (ip), vehicle: Klucel (hydroxypropylcellulose) (HPC)): 99 % of control

C=C(Br)CNCCCCCC
T/C [5]: 94 % of control | T/C [6]: 111 % of control

S=c1c2[nH]cnc2ncn1C1CCCCC1
T/C (dose: 4.4 mg/kg/injection, schedule: Q01DX009 (ip), vehicle: saline with Tween-80): 96 % of control | T/C (dose: 6.7 mg/kg/injection, schedule: Q01DX009 (ip), vehicle: saline with Tween-80): 102 % of control | T/C (dose: 10.0 mg/kg/injection, schedule: Q01DX009 (ip), vehicle: saline with Tween-80): 90 % of control | T/C (dose: 15.0 mg/kg/injection, schedule: Q01DX009 (ip), vehicle: saline with Tween-80): 95 % of control
